Values of other authors as cited in patent US10722545B2, “Compound and method for treatment of movement disorders” (priority 2018, dated 2020).

What was measured:
mice = settings: oral administration
[1] = cyclic voltammetry and fenton reaction-based system
[2] = tested on: rat cortical neuron cultures; settings: for glutamate toxicity: isolated or synthetic cannabinoid; for NMDA, AMPA and kainate receptor mediated neurotoxicity: rat cortical neuron cultures, not affected by CB receptor antagonist
neurons = settings: neuronal cultures
[3] = tested on: mutant hamster model of dystonia

Structure (SMILES) | inhibition of phenyl-p-benzoquinone-induced writhing (mice) | antioxidant activity [1] | glutamate toxicity [2] | NMDA, AMPA and kainate receptor mediated neurotoxicity [2] | hydroperoxide toxicity in neurons (neurons) | protective capacity against glutamate toxicity, head to head with other antioxidants ([2]; compared with alpha-tocopherol and ascorbate) | antidystonic effects [3]
CCCCCc1cc(O)c2c(c1)OC(C)(C)[C@@H]1CCC(C)=C[C@@H]21 (relative stereo) [THC, (-)-Δ9-trans-tetrahydrocannabinol] | least effective | potent antioxidants | prevented to some extent | reduced | – | – | –
C=C(C)[C@@H]1CCC(C)=C[C@H]1c1c(O)cc(CCCCC)cc1O [CBD, cannabidiol] | most effective | potent antioxidants | prevented to some extent | reduced | reduce hydroperoxide toxicity | superior to both alpha-tocopherol and ascorbate | –
CCCCCc1cc(O)c2c(c1)OC(C)(C)c1ccc(C)cc1-2 [CBN, cannabinol] | least effective | – | – | – | – | – | –
Cc1c(C(=O)c2cccc3ccccc23)c2cccc3c2n1[C@H](CN1CCOCC1)CO3 [WIN55,212-2] | – | – | – | – | – | – | produces antidystonic effects
